Reference: PMC6934184, “Selective DNA-PKcs inhibition extends the therapeutic index of localized radiotherapy and chemotherapy” (The Journal of Clinical Investigation, 2019)

Target: T1, PI4KA (PI4K alpha) (Homo sapiens, UniProt P42356)
T1 construct: purchased Thermo Fisher Scientific (Life Technologies) SelectScreen
Assay: SelectScreen Adapta
Assay type: biochemical
Conditions: ATP 10 µM
Protocol: The in vitro kinase selectivity of NU5455 was determined using the SelectScreen Broad Assay Panel (Thermo Fisher Scientific) involving activity and binding assays (Supplemental Table 1). […] Class IA PI3Ks were measured using the p85α subunit.
Kinase [ATP] % Assay Kinase [ATP] % Assay Kinase [ATP] % Assay Kinase [ATP] % Assay […]
SGK (SGK1) Km app 8.5 Z MAP4K2 (GCK) Km app 2.7 Z TLK2 n/a -0.3 L STK38 (NDR) n/a -5.9 L
MERTK (cMER) Km app 8.3 Z CDK2/cyclin A Km app 2.7 Z TGFBR1 (ALK5) n/a -0.4 L MATK (HYL) Km app -6.3 Z
FYN Km app 8.3 Z EPHA1 Km app 2.7 Z CLK3 Km app -0.5 Z ABL1 E255K Km app -6.6 Z
TEC n/a 8.1 L CDK2/cyclin E1 n/a 2.7 L MAP3K14 (NIK) n/a -0.5 L STK17A (DRAK1) n/a -6.6 L
KIT V654A n/a 8.1 L TESK2 n/a 2.7 L AKT3 (PKB gamma) Km app -0.5 Z JAK2 JH1 JH2 Km app -6.7 Z
ROS1 Km app 8.0 Z SPHK1 Km app 2.7 A MAP3K9 (MLK1) Km app -0.5 Z PRKACB (PRKAC beta) n/a -6.8 L
FGFR3 K650E Km app 7.9 Z AMPK A2/B1/G1 Km app 2.6 Z IKBKB (IKK beta) Km app -0.6 Z PDGFRA (PDGFR alpha) Km app -6.8 Z
RAF1 (cRAF) Y340D Y341D 100 7.9 Z DYRK3 Km app 2.6 Z CAMK2A (CaMKII alpha) Km app -0.6 Z NEK9 Km app -7.2 Z
PI4KA (PI4K alpha) 10 7.8 A CSNK1D (CK1 delta) Km app 2.6 Z PRKCB1 (PKC beta I) Km app -0.7 Z PDK1 Km app -7.3 Z
HIPK2 Km app 7.8 Z ACVR2A n/a 2.5 L TTK n/a -0.7 L RPS6KB1 (p70S6K) Km app -7.8 Z
CSK Km app 7.6 Z DDR2 T654M n/a 2.5 L ZAK n/a -0.7 L STK38L (NDR2) n/a -8.4 L
PRKCG (PKC gamma) Km app 7.6 Z JAK2 Km app 2.5 Z IKBKE (IKK epsilon) Km app -0.7 Z ABL1 G250E Km app -8.5 Z
SRMS (Srm) Km app 7.5 Z HIPK3 (YAK1) Km app 2.5 Z CAMK2G (CaMKII gamma) n/a -0.8 L PRKD1 (PKC mu) Km app -8.5 Z
YES1 Km app 7.4 Z AMPK (A1/B1/G2) n/a 2.4 L TLK1 n/a -0.8 L CDK5/p35 Km app -8.6 Z
RPS6KA5 (MSK1) Km app 7.4 Z MYO3B (MYO3 beta) n/a 2.3 L MAPK12 (p38 gamma) Km app -0.8 Z PDGFRA T674I Km app -8.9 Z
TNIK n/a 7.3 L PASK Km app 2.3 Z PRKCI (PKC iota) Km app -0.8 Z BLK Km app -8.9 Z
FER Km app 7.1 Z ACVRL1 (ALK1) n/a 2.3 L PKN2 (PRK2) n/a -1.0 L PRKD2 (PKD2) Km app -9.1 Z
CDK16 (PCTK1)/cyclin Y n/a 7.0 L EGFR (ErbB1) L861Q Km app 2.2 Z PIM1 Km app -1.0 Z CSNK1G2 (CK1 gamma 2) Km app -9.3 Z
MST4 Km app 6.9 Z RPS6KA3 (RSK2) Km app 2.1 Z CDK5/p25 Km app -1.1 Z ROCK1 Km app -9.5 Z
FLT1 (VEGFR1) Km app 6.5 Z STK23 (MSSK1) Km app 2.0 Z SRPK1 Km app -1.1 Z PRKCB2 (PKC beta II) Km app -9.6 Z
DYRK1A Km app 6.4 Z ALK R1275Q n/a 2.0 L BRSK1 (SAD1) Km app -1.1 Z CSNK1G1 (CK1 gamma 1) Km app -9.9 Z
PRKCD (PKC delta) Km app 6.2 Z TBK1 Km app 2.0 Z MAP3K3 (MEKK3) n/a -1.1 L ABL2 (Arg) Km app -10.3 Z
EGFR (ErbB1) Km app 6.0 Z ACVR1B (ALK4) Km app 2.0 Z AMPK A1/B1/G1 Km app -1.2 Z STK3 (MST2) Km app -10.3 Z
CDC7/DBF4 n/a 6.0 L CDK3/cyclin E1 n/a 1.9 L WNK3 n/a -1.2 L CAMK4 (CaMKIV) Km app -10.4 Z
JAK3 Km app 6.0 Z KDR (VEGFR2) Km app 1.8 Z LATS1 n/a -1.3 L MKNK1 (MNK1) Km app -10.7 Z
MAPK13 (p38 delta) Km app 5.8 Z ULK1 n/a 1.8 L DMPK n/a -1.5 L FLT3 ITD n/a -11.6 L
FRAP1 (mTOR) Km app 5.7 Z AURKB (Aurora B) Km app 1.7 Z CDK2/cyclin A1 n/a -1.6 L CHEK2 (CHK2) Km app -11.7 Z
KIT Y823D n/a 5.6 L LRRK2 Km app 1.7 A LIMK1 n/a -1.7 L LTK (TYK1) Km app -13.1 Z
ITK Km app 5.5 Z MAP2K3 (MEK3) n/a 1.6 L DYRK1B Km app -1.8 Z JAK2 JH1 JH2 V617F Km app -13.8 Z
KIT Km app 5.3 Z DAPK1 Km app 1.6 A DDR1 n/a -1.8 L EPHA8 Km app -13.8 Z
CDK7/cyclin H/MNAT1 Km app 5.3 A EPHA6 n/a 1.6 L BTK Km app -2.0 Z EGFR (ErbB1) T790M L858R Km app -14.1 Z
RET Km app 5.2 Z MAP4K1 (HPK1) n/a 1.6 L ADRBK1 (GRK2) Km app -2.0 Z MET M1250T Km app -14.5 Z […]

T1 sequence (P42356 whole entry): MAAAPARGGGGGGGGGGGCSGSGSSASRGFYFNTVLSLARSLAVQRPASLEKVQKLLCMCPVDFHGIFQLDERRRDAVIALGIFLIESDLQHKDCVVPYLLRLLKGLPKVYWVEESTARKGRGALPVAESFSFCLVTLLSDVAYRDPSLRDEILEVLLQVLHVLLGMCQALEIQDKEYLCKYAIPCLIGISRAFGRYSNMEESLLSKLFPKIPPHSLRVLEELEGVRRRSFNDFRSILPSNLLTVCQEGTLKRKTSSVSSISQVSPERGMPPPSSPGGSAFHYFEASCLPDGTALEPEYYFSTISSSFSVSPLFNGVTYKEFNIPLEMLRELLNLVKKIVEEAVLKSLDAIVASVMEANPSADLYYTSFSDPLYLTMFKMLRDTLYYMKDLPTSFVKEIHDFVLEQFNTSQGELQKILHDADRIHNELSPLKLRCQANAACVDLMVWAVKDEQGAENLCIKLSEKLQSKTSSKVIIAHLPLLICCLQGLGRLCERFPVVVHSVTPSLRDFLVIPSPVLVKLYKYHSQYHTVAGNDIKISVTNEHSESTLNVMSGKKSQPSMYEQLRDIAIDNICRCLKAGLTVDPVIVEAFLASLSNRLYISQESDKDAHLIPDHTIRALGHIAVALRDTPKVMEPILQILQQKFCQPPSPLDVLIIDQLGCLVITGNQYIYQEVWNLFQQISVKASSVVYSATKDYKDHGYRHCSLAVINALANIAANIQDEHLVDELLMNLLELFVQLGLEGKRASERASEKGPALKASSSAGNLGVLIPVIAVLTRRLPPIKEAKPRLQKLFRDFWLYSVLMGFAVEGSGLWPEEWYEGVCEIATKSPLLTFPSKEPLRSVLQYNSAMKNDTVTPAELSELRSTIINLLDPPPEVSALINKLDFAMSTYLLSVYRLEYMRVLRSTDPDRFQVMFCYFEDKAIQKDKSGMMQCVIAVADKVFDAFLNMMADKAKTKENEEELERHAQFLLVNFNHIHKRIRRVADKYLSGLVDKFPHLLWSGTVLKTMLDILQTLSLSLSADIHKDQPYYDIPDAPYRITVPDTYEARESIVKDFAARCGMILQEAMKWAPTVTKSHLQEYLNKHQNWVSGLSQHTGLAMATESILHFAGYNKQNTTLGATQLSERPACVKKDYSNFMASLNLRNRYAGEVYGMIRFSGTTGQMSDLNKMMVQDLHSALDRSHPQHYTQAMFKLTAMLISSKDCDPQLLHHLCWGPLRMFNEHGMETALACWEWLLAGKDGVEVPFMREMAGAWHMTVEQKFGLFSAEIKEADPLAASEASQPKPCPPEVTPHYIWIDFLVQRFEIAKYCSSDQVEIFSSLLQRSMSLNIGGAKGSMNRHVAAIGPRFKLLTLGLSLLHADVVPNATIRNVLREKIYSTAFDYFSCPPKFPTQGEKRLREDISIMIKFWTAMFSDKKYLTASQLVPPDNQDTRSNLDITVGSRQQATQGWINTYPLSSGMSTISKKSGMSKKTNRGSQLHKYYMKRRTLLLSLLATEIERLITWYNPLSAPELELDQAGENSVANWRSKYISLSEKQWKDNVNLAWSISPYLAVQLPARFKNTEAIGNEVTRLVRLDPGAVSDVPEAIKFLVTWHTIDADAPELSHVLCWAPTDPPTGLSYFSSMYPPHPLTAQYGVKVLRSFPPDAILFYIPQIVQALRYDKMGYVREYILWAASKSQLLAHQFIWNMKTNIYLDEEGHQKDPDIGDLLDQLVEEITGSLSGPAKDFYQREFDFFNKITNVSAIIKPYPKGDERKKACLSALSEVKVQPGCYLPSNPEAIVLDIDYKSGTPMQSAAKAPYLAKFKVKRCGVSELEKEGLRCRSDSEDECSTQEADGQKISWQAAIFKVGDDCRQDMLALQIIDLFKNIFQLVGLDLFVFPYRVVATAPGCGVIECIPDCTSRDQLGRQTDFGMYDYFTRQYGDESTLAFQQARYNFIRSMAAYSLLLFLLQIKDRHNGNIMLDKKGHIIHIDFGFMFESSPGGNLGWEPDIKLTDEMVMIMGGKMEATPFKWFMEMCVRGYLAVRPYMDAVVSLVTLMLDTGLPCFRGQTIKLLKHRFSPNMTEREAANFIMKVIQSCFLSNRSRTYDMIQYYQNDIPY

Compound: CN(C(=O)CN1CCOCC1)c1ccc2sc3c(-c4cccc5c(=O)cc(N6CC7CCC(C6)O7)oc45)cccc3c2c1 [NU5455]
- inhibition at 1 µM: 7.8%
